Measurements as given in article PMC8146939 (Biomedicines, 2021).

Target: T1, GIRK2 (Homo sapiens, UniProt P48051)
T1 construct: gene KCNJ6; homotetramer GIRK2
T1 sequence (P48051 1-423): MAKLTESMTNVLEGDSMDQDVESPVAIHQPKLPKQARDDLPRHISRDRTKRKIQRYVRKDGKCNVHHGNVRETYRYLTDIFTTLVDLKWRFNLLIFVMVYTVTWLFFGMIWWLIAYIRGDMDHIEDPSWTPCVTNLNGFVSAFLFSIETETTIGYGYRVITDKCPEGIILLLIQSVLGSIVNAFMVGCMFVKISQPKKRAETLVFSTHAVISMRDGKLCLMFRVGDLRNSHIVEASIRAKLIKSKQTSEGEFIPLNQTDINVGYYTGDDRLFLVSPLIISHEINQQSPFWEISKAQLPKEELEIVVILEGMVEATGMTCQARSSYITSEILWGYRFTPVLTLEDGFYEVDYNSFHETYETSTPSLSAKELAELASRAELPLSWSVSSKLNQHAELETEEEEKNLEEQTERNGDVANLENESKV
Assay: two-electrode voltage clamp in Xenopus oocytes expressing homotetrameric GIRK2, single concentration […]
Format: cell-based
Conditions: read-out: % reduction in inward K+ currents at 10 μM

Cc1c(C(=O)c2cccc3ccccc23)c2cccc3c2n1[C@H](CN1CCOCC1)CO3 [WIN55,212-2]
inhibition at 10 µM: 8.91 ± 1.68%
